From patent US10226453B2, “3-(1H-indol-2-yl)-1H-pyrazolo[4,3-B]pyridines and therapeutic uses thereof” (Samumed, LLC, priority 2015, dated 2019)

What was measured:
Assay type in all cases: cell-based
[1] = tested on: Wnt activity (Sp5-Luc reporter, SW480 colon carcinoma cells); assay: Wnt activity screening assay: Sp5-Luc reporter gene in SW480 colon carcinoma cells; settings: Homo sapiens; for EC50: overnight incubation, 10-point curve from 10 μM; for inhibition at 10 µM: given where EC50 >10 μM, read-out: percent inhibition at 10 μM
From the text: The screening assay for Wnt activity is described as follows. Reporter cell lines can be generated by stably transducing cancer cell lines (e.g., colon cancer) or primary cells (e.g., IEC-6 intestinal cells) with a lentiviral construct that includes a Wnt-responsive promoter driving expression of the firefly luciferase gene.
SW480 colon carcinoma cells were transduced with a lentiviral vector expressing luciferase with a human Sp5 promoter consisting of a sequence of eight TCF/LEF binding sites. SW480 cells stably expressing the Sp5-Luc reporter gene and a hygromycin resistance gene were selected by treatment with 150 μg/mL of hygromycin for 7 days. These stably transduced SW480 cells were expanded in cell culture and used for all further screening activities. Each compound was dissolved in DMSO as a 10 mM stock and used to prepare compound source plates. Serial dilution (1:3, 10-point dose-response curves starting from 10 μM) and compound transfer was performed using the ECHO 550 (Labcyte, Sunnyvale, Calif.) into 384-well white solid bottom assay plates (Greiner Bio-One) with appropriate DMSO backfill for a final DMSO concentration of 0.1%. For Sp5-Luc reporter gene assays, the cells were plated at 4,000 cells/well in 384-well plates with medium containing 1% fetal bovine serum and incubated overnight at 37° C. and 5% CO2. Following incubation, 20 μl of BrightGlo luminescence reagent (Promega) was added to each well of the 384-well assay plates. The plates were placed on an orbital shaker for 2 min and then luminescence was quantified using the Envision (Perkin Elmer) plate reader. Readings were normalized to DMSO only treated cells, and normalized activities were utilized for EC50 calculations using the dose-response log (inhibitor) vs. response-variable slope (four parameters) nonlinear regression feature available in GraphPad Prism 5.0 (or Dotmatics). For EC50 of >10 μM, the percent inhibition at 10 μM is provided.

SW480 colon cancer cells = assay: Cell viability assay (CellTiter-Blue), SW480 colon cancer cells; settings: Homo sapiens, 96 h, four days, CellTiter-Blue
Experimental: Representative compounds were screened using the following assay procedure to assess the effect on cell viability as described below.
Each compound was dissolved in DMSO as a 10 mM stock and used to prepare compound source plates. Serial dilution (1:3, 8-point dose-response curves from 10 μM to 0.0045 μM) and compound transfer was performed using the ECHO 550 (Labcyte, Sunnyvale, Calif.) into 96-well clear bottom, black-walled plates (Corning—Costar).
Approximately 2×10^3 SW480 colon cancer cells were seeded into each well and allowed to incubate in the presence or absence of compound for four days at 37° C./5% CO2. Eight replicates of DMSO-treated cells served as controls and cells treated with compound were performed in duplicate.
After incubation, 20 μL of CellTiter-Blue (Promega) was added to each well allowed to incubate for approximately 3 hours. This reagent was a buffered solution which contains resazurin, metabolically active cells were able to reduce rezarurin (blue) into resorufin (pink) which was highly fluorescent. This measured fluorescence was used as a readout for cell viability.
After incubation, the plates were read at Ex 560 nm Em 590 nm (Cytation 3, BioTek). Dose-response curves were generated and EC50 concentration values were calculated using non-linear regression curve fit in the GraphPad Prism (San Diego, Calif.) or Dotmatics' Studies Software (Bishops Stortford, UK). For EC50 of >10 μM, the percent inhibition at 10 μM is provided.

[2] = tested on: primary human fibroblasts derived from IPF patients (LL29 cells) treated with TGF-β1; assay: Inhibition of the fibrotic process: αSMA staining in TGF-β1 treated primary human fibroblasts from IPF patients (LL29 cells); settings: Fibroblast, 96 h, TGF-β1 20 ng/mL, 4 days, % αSMA positive cells
From the text: Representative compounds were screened using primary human fibroblasts (derived from IPF patients) treated with TGF-β1 to determine their ability to inhibit the fibrotic process.
Primary human fibroblasts derived from IPF patients (LL29 cells) [^1Xiaoqiu Liu, et. al., “Fibrotic Lung Fibroblasts Show Blunted Inhibition by cAMP Due to Deficient cAMP Response Element-Binding Protein Phosphorylation”, Journal of Pharmacology and Experimental Therapeutics (2005), 315(2), 678-687; ^2Watts, K. L., et. al., “RhoA signaling modulates cyclin D1 expression in human lung fibroblasts; implications for idiopathic pulmonary fibrosis”, Respiratory Research (2006), 7(1), 88] were obtained from American Type Culture Collection (ATCC) and expanded in F12 medium supplemented with 15% Fetal Bovine Serum and Penicillin/Streptomycin.
Each compound was dissolved in DMSO as a 10 mM stock and used to prepare compound source plates. Serial dilution (1:2, 11-point dose-response curves from 10 μM to 1.87 nM) and compound transfer was performed using the ECHO 550 (Labcyte, Sunnyvale, Calif.) into 384-well clear bottom assay plates (Greiner Bio-One) with appropriate DMSO backfill for a final DMSO concentration of 0.1%. LL29 cells are plated at 1,500 cells/well in 80 μL/well F12 medium supplemented with 1% Fetal Bovine Serum. One hour after addition of the cells, TGF-β1 (Peprotech; 20 ng/mL) was added to the plates to induce fibrosis (ref. 1 and 2 above). Wells treated with TGF-β1 and containing DMSO were used as controls. Cells were incubated at 37° C. and 5% CO2 for 4 days. Following incubation for 4 days, SYTOX green nucleic acid stain (Life Technologies [Thermo Fisher Scientific]) was added to the wells at a final concentration of 1 μM and incubated at room temperature for 30 min. Cells were then fixed using 4% formaldehyde (Electron Microscopy Sciences), washed 3 times with PBS followed by blocking and permeabilization using 3% Bovine Serum Albumin (BSA; Sigma) and 0.3% Triton X-100 (Sigma) in PBS. Cells were then stained with antibody specific to α-smooth muscle actin (αSMA; Abcam) (ref. 1 and 2 above) in 3% Bovine Serum Albumin (BSA; Sigma) and 0.3% Triton X-100 (Sigma) in PBS, and incubated overnight at 4° C. Cells were then washed 3 times with PBS, followed by incubation with Alexa Flor-647 conjugated secondary antibody (Life Technologies [Thermo Fisher Scientific]) and DAPI at room temperature for 1 hour. Cells were then washed 3 times with PBS and plates were sealed for imaging. αSMA staining was imaged by excitation at 630 nm and emission at 665 nm and quantified using the Compartmental Analysis program on the CellInsight CX5 (Thermo Scientific). Dead or apoptotic cells were excluded from analysis based on positive SYTOX green staining. % of total cells positive for αSMA were counted in each well and normalized to the average of 11 wells treated with TGF-β1 on the same plate using Dotmatics' Studies Software. The normalized averages (fold change over untreated) of 3 replicate wells for each compound concentration were used to create dose-responses curves and EC50 values were calculated using non-linear regression curve fit in the Dotmatics' Studies Software. For EC50 of >10 μM, the percent inhibition at 10 μM is provided.

IL-6 (THP-1 cells) = assay: IL-6 inhibition in LPS-stimulated THP-1 human monocyte cells (HTRF); settings: LPS 500 ng/mL, 22 hours, IL6 HTRF
Experimental: Human monocyte cell line (THP-1 cells; Catalog # TIB-202, ATCC, Manassas, Va.) were cultured in Roswell Park Memorial Institute (RPMI) 1640 Medium (Catalog #21870-100, Buffalo, N.Y.) with 1% L-glutamine, 1% HEPES, 1% Sodium Pyruvate, 2% Sodium Bicarbonate supplemented with 100 units/mL penicillin, 50 μg/mL streptomycin, 2-mercaptoethanol (0.05 mM) [basal medium] and 10% fetal bovine serum (Catalog #16140089, Life Technologies, Carlsbad, Calif.) at 37° C. and 5% CO2.
THP-1 cells were cultured in basal media with 1% FBS for 24 hours before the start of the assay. Each compound was dissolved in DMSO as a 10 mM stock and used to prepare compound source plates. Serial dilution (1:3, 10-point dose-response curves starting from 10 μM) and compound transfer was performed using the ECHO 550 (Labcyte, Sunnyvale, Calif.) into 384-well white low volume assay plates (Greiner Bio-One) with appropriate DMSO backfill for a final DMSO concentration of 0.1%. THP-1 cells were plated at 5000 cells/well in the 384-well plates and incubated at 37° C. for 2 h. 500 ng/mL of LPS was added after 2 hours and cells were incubated for another 22 hours at 37° C. Plates were spun in a centrifuge for 1 minute at […] and a mixture of anti-IL6 XL665, and anti-IL6 Cryptate diluted in reconstitution buffer (Cisbio Inc.) was added to each well. Following incubation for 3 hrs at room temperature, Homogeneous Time-Resolved Fluorescence (HTRF) was measured using the Envision (Perkin Elmer) at 665 nm and […]. The ratio of fluorescence at 665 nm to 620 nm was used as a readout for IL6 quantification. All samples were processed in duplicate. Readings were normalized to DMSO treated cells and normalized activities were utilized for EC50 calculations using the dose-response log (inhibitor) vs. response-variable slope (four parameters) nonlinear regression feature available in GraphPad Prism 5.0 (or Dotmatics). For EC50 of >10 μM, the percent inhibition at 10 μM is provided.

Row | Structure (SMILES) | EC50 [1] [nM] | EC50 (SW480 colon cancer cells) [nM] | EC50 (IL-6 (THP-1 cells)) [nM] | EC50 [2] [nM] | inhibition at 10 µM [1] [%]
1 | Cc1ncc(-c2ccc3[nH]nc(-c4cc5ccccc5[nH]4)c3n2)n1C [Compound 681, 5-(1,2-Dimethyl-1H-imidazol-5-yl)-3-(1H-indol-2-yl)-1H-pyrazolo[4,3-b] pyridine] | 640 | 728 | 17 | 279 | –
2 | O=C(Nc1cncc(-c2ccc3[nH]nc(-c4cc5c(-c6cccs6)cccc5[nH]4)c3n2)c1)c1ccccc1 [Compound 347, N-(5-(3-(4-(Thiophen-2-yl)-1H-indol-2-yl)-1H-pyrazolo[4,3-b]pyridin-5-yl)pyridin-3-yl)benzamide] | > 10000 | 6080 | 1070 | 446 | 35.8
3 | CN(C)CCOc1cncc(-c2ccc3[nH]nc(-c4cc5c(-c6cccnc6)cccc5[nH]4)c3n2)c1 [Compound 591, N,N-Dimethyl-2-((5-(3-(4-(pyridin-3-yl)-1H-indol-2-yl)-1H-pyrazolo[4,3-b]pyridin-5-yl)pyridin-3-yl)oxy)ethan-1-amine] | 4280 | 1090 | 17 | 1160 | –
4 | c1csc(-c2cccc3[nH]c(-c4n[nH]c5ccc(-c6ccncc6)nc45)cc23)c1 [Compound 354, 5-(Pyridin-4-yl)-3-(4-(thiophen-2-yl)-1H-indol-2-yl)-1H-pyrazolo[4,3-b] pyridine] | 3600 | 4120 | 1420 | 1460 | –
5 | Cc1ccncc1-c1ccc2[nH]nc(-c3cc4ccccc4[nH]3)c2n1 [Compound 257, 3-(1H-Indol-2-yl)-5-(4-methylpyridin-3-yl)-1H-pyrazolo[4,3-b]pyridine] | 3690 | 8060 | 17 | 4640 | –
6 | CN1CCN(c2cccc3[nH]c(-c4n[nH]c5ccc(-c6cncc(CN7CCCCC7)c6)nc45)cc23)CC1 [Compound 239, 3-(4-(4-Methylpiperazin-1l-yl)-1H-indol-2-yl)-5-(5-(piperidin-1-ylmethyl)pyridin-3-yl)-1H-pyrazolo[4,3-b]pyridine] | > 10000 | 9360 | 1190 | 4980 | 5

These reach a lower EC50 [1]. Values come first.

Row | EC50 [1] [nM] | EC50 (SW480 colon cancer cells) [nM] | EC50 (IL-6 (THP-1 cells)) [nM] | Structure (SMILES) | EC50 [2] [nM] | inhibition at 10 µM [1] [%]
7 | 433 | 1190 | 473 | CS(=O)(=O)NCc1cc(F)cc(-c2cccc3[nH]c(-c4n[nH]c5ccc(-c6cncc(OCc7ccccc7)c6)nc45)cc23)c1 [Compound 802, N-(3-(2-(5-(5-(Benzyloxy)pyridin-3-yl)-1H-pyrazolo[4,3-b]pyridin-3-yl)-1H-indol-4-yl)-5-fluorobenzyl)methanesulfonamide] | 276 | –
8 | 338 | 2780 | 23 | Cn1cc(-c2ccc3[nH]nc(-c4cc5c(-c6cccc(F)c6)cccc5[nH]4)c3n2)cn1 [Compound 536, 3-(4-(3-Fluorophenyl)-1H-indol-2-yl)-5-(1-methyl-1H-pyrazol-4-yl)-1H-pyrazolo[4,3-b]pyridine] | 230 | –
9 | 306 | 827 | 106 | CS(=O)(=O)NCc1cc(F)cc(-c2cccc3[nH]c(-c4n[nH]c5ccc(-c6cncc(NC(=O)C7CCCC7)c6)nc45)cc23)c1 [Compound 498, N-(5-(3-(4-(3-Fluoro-5-(methylsulfonamidomethyl)phenyl)-1H-indol-2-yl)-1H-pyrazolo[4,3-b]pyridin-5-yl)pyridin-3-yl)cyclopentanecarboxamide] | 403 | –
10 | 253 | 2150 | 126 | c1cncc(-c2ccc3[nH]nc(-c4cc5c(N6CCCCC6)cccc5[nH]4)c3n2)c1 [Compound 172, 3-(4-(Piperidin-1-yl)-1H-indol-2-yl)-5-(pyridin-3-yl)-1H-pyrazolo[4,3-b] pyridine] | 295 | –
11 | 164 | 895 | 51 | O=C(Nc1cncc(-c2ccc3[nH]nc(-c4cc5c(-c6ccccc6F)cccc5[nH]4)c3n2)c1)C1CC1 [Compound 76, N-(5-(3-(4-(2-Fluorophenyl)-1H-indol-2-yl)-1H-pyrazolo[4,3-b]pyridin-5-yl)pyridin-3-yl)cyclopropanecarboxamide] | 502 | –
